ChEMBL document CHEMBL4339189, “Dissymmetric pyridyl-substituted 3,5-bis(arylidene)-4-piperidones as anti-hepatoma agents by inhibiting NF-κB pathway activation” (Eur J Med Chem, 2019)
pIC50: −log10 of the molar value. Activity calls are given as the source filed them. The calls are words filed in the database; no cut-off is given here.

Key:
HepG2 = assay: Cytotoxicity against human HepG2 cells assessed as reduction in cell viability incubated for 24 hrs by MTT assay; assay type: functional, cell-based; settings: HepG2, 24 h
QGY-7703 = assay: Cytotoxicity against human QGY7703 cells assessed as reduction in cell viability incubated for 24 hrs by MTT assay; assay type: functional, cell-based; settings: QGY-7703, 24 h
SMMC-7721 = assay: Cytotoxicity against human SMMC7721 cells assessed as reduction in cell viability incubated for 24 hrs by MTT assay; assay type: functional, cell-based; settings: SMMC-7721, 24 h
[1] = Cytotoxicity against human HHL5 cells assessed as reduction in cell viability incubated for 24 hrs by MTT assay; assay type: cell-based; settings: HHL-5, 24 h
L02 = assay: Cytotoxicity against human LO2 cells assessed as reduction in cell viability incubated for 24 hrs by MTT assay; assay type: cell-based; settings: L02, 24 h
RAW264.7 [2] = assay: Cytotoxicity against mouse RAW264.7 cells assessed as reduction in cell viability at 6.0 uM incubated for 24 hrs by MTT assay; assay type: cell-based; settings: raw264.7, 24 h
RAW264.7 [3] = assay: Antiinflammatory activity in mouse RAW264.7 cells assessed as inhibition of LPS-stimulated TNF-alpha production at 6.0 uM preincubated for 2 hrs followed by LPS stimulaton measured after 22 hrs by ELISA relative to control; assay type: functional
RAW264.7 [4] = assay: Antiinflammatory activity in mouse RAW264.7 cells assessed as inhibition of LPS-stimulated IL-6 production 6.0 uM preincubated for 2 hrs followed by LPS stimulaton measured after 22 hrs by ELISA relative to control; assay type: functional

CC(=O)Nc1ccc(S(=O)(=O)N2C/C(=C\c3cccnc3)C(=O)/C(=C/c3ccccc3C(F)(F)F)C2)cc1
pIC50 (HepG2): 5.36 | pIC50 (QGY-7703): 5.27 | pIC50 (SMMC-7721): 5.01 | pIC50 [1]: < 4.70 | pIC50 (L02): 4.82 | Activity (RAW264.7 [2]): Non-Toxic | inhibition (RAW264.7 [3]): Active | inhibition (RAW264.7 [4]): Active

CN1C/C(=C\c2cccnc2)C(=O)/C(=C/c2cc([N+](=O)[O-])ccc2F)C1
pIC50 (HepG2): 5.18 | pIC50 (QGY-7703): 4.95 | pIC50 (SMMC-7721): 5.21 | pIC50 [1]: 4.85 | pIC50 (L02): 4.81 | Activity (RAW264.7 [2]): Non-Toxic | inhibition (RAW264.7 [3]): Active | inhibition (RAW264.7 [4]): Active

O=C1/C(=C/c2cccnc2)CN(S(=O)(=O)c2ccc(F)cc2)C/C1=C\c1ccccc1F
pIC50 (HepG2): 4.81 | pIC50 (QGY-7703): 4.82 | pIC50 (SMMC-7721): 5.00 | pIC50 [1]: 4.90 | pIC50 (L02): 4.81 | Activity (RAW264.7 [2]): Non-Toxic | inhibition (RAW264.7 [3]): inactive | inhibition (RAW264.7 [4]): inactive

O=C1/C(=C/c2cccnc2)CN(S(=O)(=O)c2ccc(C(F)(F)F)cc2)C/C1=C\c1ccccc1F
pIC50 (HepG2): 5.62 | pIC50 (QGY-7703): 5.35 | pIC50 (SMMC-7721): 5.10 | pIC50 [1]: 4.85 | pIC50 (L02): 4.95 | Activity (RAW264.7 [2]): Non-Toxic | inhibition (RAW264.7 [3]): Active | inhibition (RAW264.7 [4]): Active

O=C1/C(=C/c2cccnc2)CN(S(=O)(=O)c2ccc(Cl)cc2)C/C1=C\c1ccccc1C(F)(F)F
pIC50 (HepG2): 5.44 | pIC50 (QGY-7703): 5.46 | pIC50 (SMMC-7721): 5.31 | pIC50 [1]: 4.95 | pIC50 (L02): 4.92 | Activity (RAW264.7 [2]): Non-Toxic | inhibition (RAW264.7 [3]): Active | inhibition (RAW264.7 [4]): Active

O=C1/C(=C/c2cccnc2)CN(S(=O)(=O)c2ccc([N+](=O)[O-])cc2)C/C1=C\c1ccccc1F
pIC50 (HepG2): 4.89 | pIC50 (QGY-7703): 5.25 | pIC50 (SMMC-7721): < 4.70 | pIC50 [1]: < 4.70 | pIC50 (L02): < 4.70 | Activity (RAW264.7 [2]): Non-Toxic | inhibition (RAW264.7 [3]): inactive | inhibition (RAW264.7 [4]): inactive

O=C1/C(=C/c2cccnc2)CN(S(=O)(=O)c2ccc(F)cc2)C/C1=C\c1ccccc1C(F)(F)F
pIC50 (HepG2): 5.63 | pIC50 (QGY-7703): 5.22 | pIC50 (SMMC-7721): 5.19 | pIC50 [1]: 4.92 | pIC50 (L02): 4.79 | Activity (RAW264.7 [2]): Non-Toxic | inhibition (RAW264.7 [3]): Active | inhibition (RAW264.7 [4]): Active

COc1cc(/C=C2\CN(C)C/C(=C\c3ccncc3)C2=O)cc(OC)c1OC
pIC50 (HepG2): 5.01 | pIC50 (QGY-7703): 5.23 | pIC50 (SMMC-7721): 5.04 | pIC50 [1]: 4.91 | pIC50 (L02): 4.79 | Activity (RAW264.7 [2]): Non-Toxic | inhibition (RAW264.7 [3]): Active | inhibition (RAW264.7 [4]): Active

CN1C/C(=C\c2ccc(C#N)cc2)C(=O)/C(=C/c2cccnc2)C1
pIC50 (HepG2): 4.89 | pIC50 (QGY-7703): < 4.70 | pIC50 (SMMC-7721): 4.87 | pIC50 [1]: < 4.70 | pIC50 (L02): < 4.70 | Activity (RAW264.7 [2]): Non-Toxic | inhibition (RAW264.7 [3]): Active | inhibition (RAW264.7 [4]): Active

CN1C/C(=C\c2ccncc2)C(=O)/C(=C/c2ccccc2F)C1
pIC50 (HepG2): 5.34 | pIC50 (QGY-7703): 5.31 | pIC50 (SMMC-7721): 5.15 | pIC50 [1]: 4.73 | pIC50 (L02): 4.83 | Activity (RAW264.7 [2]): Non-Toxic | inhibition (RAW264.7 [3]): Active | inhibition (RAW264.7 [4]): Active

CN1C/C(=C\c2cccnc2)C(=O)/C(=C/c2ccccc2C(F)(F)F)C1
pIC50 (HepG2): 5.59 | pIC50 (QGY-7703): 5.54 | pIC50 (SMMC-7721): 5.41 | pIC50 [1]: 4.95 | pIC50 (L02): 4.85 | Activity (RAW264.7 [2]): Non-Toxic | inhibition at 6 µM (RAW264.7 [3]): < 30% | inhibition (INH) (RAW264.7 [4]): <30%

O=C1/C(=C/c2ccncc2)CN(S(=O)(=O)c2ccc([N+](=O)[O-])cc2)C/C1=C\c1ccccc1F
pIC50 (HepG2): 4.95 | pIC50 (QGY-7703): 5.06 | pIC50 (SMMC-7721): 4.80 | pIC50 [1]: 4.80 | pIC50 (L02): 4.74 | Activity (RAW264.7 [2]): Non-Toxic | inhibition (RAW264.7 [3]): inactive | inhibition (RAW264.7 [4]): inactive

COc1ccc(/C=C2\CN(C)C/C(=C\c3cccnc3)C2=O)c(OC)c1OC
pIC50 (HepG2): 5.29 | pIC50 (QGY-7703): 5.58 | pIC50 (SMMC-7721): 4.86 | pIC50 [1]: 4.93 | pIC50 (L02): 4.87 | Activity (RAW264.7 [2]): Non-Toxic | inhibition (RAW264.7 [3]): Active | inhibition (RAW264.7 [4]): Active

Cc1ccc(S(=O)(=O)N2C/C(=C\c3cccnc3)C(=O)/C(=C/c3ccccc3F)C2)cc1
pIC50 (HepG2): 5.38 | pIC50 (QGY-7703): 5.01 | pIC50 (SMMC-7721): 4.99 | pIC50 [1]: 4.82 | pIC50 (L02): 4.83 | Activity (RAW264.7 [2]): Non-Toxic | inhibition (RAW264.7 [3]): Active | inhibition (RAW264.7 [4]): Active

O=C1/C(=C/c2cccnc2)CN(S(=O)(=O)c2ccc([N+](=O)[O-])cc2)C/C1=C\c1ccccc1C(F)(F)F
pIC50 (HepG2): 5.03 | pIC50 (QGY-7703): 5.12 | pIC50 (SMMC-7721): 4.80 | pIC50 [1]: 4.85 | pIC50 (L02): 4.80 | Activity (RAW264.7 [2]): Non-Toxic | inhibition (RAW264.7 [3]): Active | inhibition (RAW264.7 [4]): Active

O=C1/C(=C/c2cccnc2)CN(S(=O)(=O)c2ccccc2)C/C1=C\c1ccccc1F
pIC50 (HepG2): 5.09 | pIC50 (QGY-7703): 5.32 | pIC50 (SMMC-7721): 4.72 | pIC50 [1]: 4.85 | pIC50 (L02): 4.82 | Activity (RAW264.7 [2]): Non-Toxic | inhibition (RAW264.7 [3]): inactive | inhibition (RAW264.7 [4]): inactive

CC(=O)Nc1ccc(S(=O)(=O)N2C/C(=C\c3cccnc3)C(=O)/C(=C/c3ccccc3F)C2)cc1
pIC50 (HepG2): 5.34 | pIC50 (QGY-7703): 5.02 | pIC50 (SMMC-7721): 4.96 | pIC50 [1]: 4.85 | pIC50 (L02): 4.81 | Activity (RAW264.7 [2]): Non-Toxic | inhibition (RAW264.7 [3]): Active | inhibition (RAW264.7 [4]): Active

N#Cc1ccc(S(=O)(=O)N2C/C(=C\c3cccnc3)C(=O)/C(=C/c3ccccc3C(F)(F)F)C2)cc1
pIC50 (HepG2): 5.30 | pIC50 (QGY-7703): 5.21 | pIC50 (SMMC-7721): 5.02 | pIC50 [1]: 4.95 | pIC50 (L02): 4.88 | Activity (RAW264.7 [2]): Non-Toxic | inhibition (RAW264.7 [3]): Active | inhibition (RAW264.7 [4]): Active

O=C1/C(=C/c2cccnc2)CNC/C1=C\c1ccccc1F
pIC50 (HepG2): 4.68 | pIC50 (QGY-7703): 5.05 | pIC50 (SMMC-7721): < 4.70 | pIC50 [1]: 4.84 | pIC50 (L02): 4.80 | Activity (RAW264.7 [2]): Non-Toxic | inhibition (RAW264.7 [3]): inactive | inhibition (RAW264.7 [4]): inactive

COc1cc(/C=C2\CN(C)C/C(=C\c3cccnc3)C2=O)cc(OC)c1OC
pIC50 (HepG2): 5.02 | pIC50 (QGY-7703): 5.37 | pIC50 (SMMC-7721): 4.69 | pIC50 [1]: 4.95 | pIC50 (L02): 4.84 | Activity (RAW264.7 [2]): Non-Toxic | inhibition (RAW264.7 [3]): Active | inhibition (RAW264.7 [4]): Active

CN1C/C(=C\c2cccnc2)C(=O)/C(=C/c2ccccc2F)C1
pIC50 (HepG2): 5.32 | pIC50 (QGY-7703): 5.35 | pIC50 (SMMC-7721): 5.27 | pIC50 [1]: 4.87 | pIC50 (L02): 4.80 | Activity (RAW264.7 [2]): Non-Toxic | inhibition (RAW264.7 [3]): Active | inhibition (RAW264.7 [4]): Active

COc1cc(/C=C2\CN(C)C/C(=C\c3ccncc3)C2=O)cc(OC)c1
pIC50 (HepG2): 5.02 | pIC50 (QGY-7703): 5.08 | pIC50 (SMMC-7721): 5.24 | pIC50 [1]: 4.95 | pIC50 (L02): 4.87 | Activity (RAW264.7 [2]): Non-Toxic | inhibition (RAW264.7 [3]): Active | inhibition (RAW264.7 [4]): Active

COc1ccc(/C=C2\CN(C)C/C(=C\c3ccncc3)C2=O)c(OC)c1OC
pIC50 (HepG2): 5.45 | pIC50 (QGY-7703): 5.08 | pIC50 (SMMC-7721): 5.04 | pIC50 [1]: 4.93 | pIC50 (L02): 4.81 | Activity (RAW264.7 [2]): Non-Toxic | inhibition (RAW264.7 [3]): Active | inhibition (RAW264.7 [4]): Active

O=C1/C(=C/c2ccncc2)CN(S(=O)(=O)c2ccc(C(F)(F)F)cc2)C/C1=C\c1ccccc1F
pIC50 (HepG2): 5.39 | pIC50 (QGY-7703): 5.02 | pIC50 (SMMC-7721): 4.95 | pIC50 [1]: 4.87 | pIC50 (L02): 4.73 | Activity (RAW264.7 [2]): Non-Toxic | inhibition (RAW264.7 [3]): Active | inhibition (RAW264.7 [4]): Active
